Values of other authors in patent EP1782809A1, “Use of ligands of PPARGamma for inducing foetal lung maturity and the prevention of the respiratory-distress syndrome in premature infants” (Charité-Universitätsmedizin Berlin, priority 2005, dated 2007).
Like-named read-outs stand apart in the source and are kept apart here.

Key:
[1] = rabbits; 20 or 75-fold of the maximal recommended human dosage
[2] = not given; remark: listed apart in the source

| foetal growth ([2]; late pregnancy, at this dose (20 or 75-fold of human dosage), species not stated in the sentence (rats or rabbits) [26]) | effect on the implantation or embryogenesis ([2]; rats) | Structure (SMILES) | incidence of elevated transaminases (human, in vivo) | teratogenic effect [1] | incidence of elevated transaminases (controlled clinical studies, compared to the placebo group [19]) | teratogenic effect ([2]; rats, 20 or 75-fold of the maximal recommended human dosage) |
| --- | --- | --- | --- | --- | --- | --- |
|  |  | CCc1ccc(CCOc2ccc(CC3SC(=O)NC3=O)cc2)nc1 (stereo not shown) [pioglitazone] | similar |  |  |  |
| can slow down the foetal growth | no effect | CN(CCOc1ccc(CC2SC(=O)NC2=O)cc1)c1ccccn1 (stereo not shown) [rosiglitazone] |  | no teratogenic effect | similar | no teratogenic effect |
|  |  | Cc1c(C)c2c(c(C)c1O)CCC(C)(COc1ccc(CC3SC(=O)NC3=O)cc1)O2 (stereo not shown) [troglitazone] | triplicated |  |  |  |
